Patent US20120149780A1, “Method of Use of Vitamin K as Energy Enhancer in Diverse Disease States” (priority 2009, published 2012)

Columns and labels:
[1] = literature supplemental trials, oral supplementation; cited from earlier work
[2] = 500 μg/day, 36-month, older men; cited from earlier work
[3] = Post-chemo restlessness/akathisia in ovarian cancer patient (case report); type: in vivo, human; conditions: Example 05: person, ovarian cancer under chemotherapy
Excerpt: (§1) Person, was diagnosed to have bilateral ovarian cancer in 2005, with ascites and abdominal lymph node metastases. They have undergone surgery and several courses of chemotherapy. […] They are currently under chemotherapy cycles. They tolerated chemotherapy reasonably well but complained of marked fatigue and low energy levels. […] They were given a larger dose of vitamin K2-7 per day. […] They are continued on the dose of vitamin K2-7 for two months.

[4] = Fatigue, energy level and exertion endurance in individual subjects (case reports); type: in vivo, human
Method: Person, suffering from general fatigue. They used to go to Gold gym 5-6 times per month. On the treadmill they used to walk at 5 km/hr speed at the start of the exercise and then gradually increase it to 6 km/hr in the next 15 minutes. When they started taking vitamin K2-7 350 μg per day, within 2 weeks of taking vitamin K2-7, they could start at 6 km/hr and go on up to 6.4 km/hr on the treadmill without feeling the strain they felt earlier. […] Their treadmill experience, was now smooth and ‘effortless’.
as §1
(§2) Their complaints were fatigue, low energy level, muscle cramps and tingling and numbness of lower limbs. […] These returned with drawal and were relieved with re-therapy. […] They were started 350 μg per day of vitamin K2-7 over the two months period.
(§3) Person was having hypertension (160/114 mmHg) but was not on any medication. They complained of fatigue and low energy level. They were put on 3 capsules per day of 100 μg of vitamin K2-7 for 1 month and then on 2 capsule per day of 350 μg of vitamin K2-7 for the next 2 months under close observation by medical doctor. […] They continued the medicine for next couple of month with same dose i.e. 2 capsules per day of 350 μg of vitamin K2-7. […] Then they were taken off from the treatment for 15 days. Blood pressure shot up to 146/108 mmHg, They were again put on vitamin K2-7, 350 μg, 2 capsules per day and their blood pressure came down to 136/100 mmHg.
Person, was heaving history of Spondylosis, Diabetes mellitus and Hypertension. Five years ago they were operated for cataract (right eye). They are on regular medicine i.e. Atenol50™, one per day, after breakfast, Insulin2™ one per day after lunch, and Diaonil5™, two times a day. They were complaining of fatigue and lack of energy so much so that they found ascending 20 steps at a time difficult with related exhaustion and breathlessness. They were advised to take vitamin K2-7, 350 μg, one cap per day.

[5] = Muscle cramps and neuropathic symptoms of lower limbs (case report); type: in vivo, human; conditions: Example 06: person
Method: as §2

[6] = Blood pressure in individual subjects taking vitamin K2-7 (case reports); type: in vivo, human
Method: Person, with hypercholesterolemia (Lipid Profile; 200 mg—Total cholesterol) for which they are taking Atorvastatin 5 mg one per day and 75 mg of Aspirin one per/day since last five years. Underwent angioplasty. They were also having blood pressure which ranges from 136-134/90-88 mmHg. They were taking Telmisartan 40 mg/day from last 4 years for hypertension. Then about 6 months ago they started taking vitamin K2-7 in daily dose of 200 μg. Currently they have stopped taking anti-hypertensive medication from last 1 month. Over a period of 1 and ½ months it is observed that their blood pressure has dropped down to 118-114/78-84 mmHg. Now they are off any anti-hypertensive medicine and continues with vitamin K2-7 only.
as §3
(§4) Person, healthy otherwise, was having blood pressure on higher side i.e. 130/90 mmHg. They were advised to start taking vitamin K2-7, in a dose of 650 μg, one capsule per day.

[7] = Side effects / adverse effects noted during treatment (case reports); type: in vivo, human
Method: as §2, §4

[8] = tested on: CEA; experiment: CEA levels in ovarian cancer patient (case report); type: in vivo, human; conditions: Example 05: person, under chemotherapy and vitamin K2-7
Excerpt: as §1

Molecule: CN(CC(=O)O)C(=N)N.O [Creatine monohydrate]
- effect of supplementation on VO2max / aerobic capacity / exercise performance [1]: did not increase performance

Molecule: CC(O)C(=O)O (stereo not drawn) [lactate]
- effect of supplementation on VO2max / aerobic capacity / exercise performance [1]: unaffected

Molecule: CN(CC(=O)O)C(=N)N [creatine]
- effect of supplementation on VO2max / aerobic capacity / exercise performance [1]: improves exercise performance

Molecule: O=C1O[C@H]([C@@H](O)CO)C(O)=C1O [vitamin C]
- effect of supplementation on VO2max / aerobic capacity / exercise performance [1]: neither vitamin E nor C, either alone or in combination, enhanced exercise performance

Molecule: vitamin K
- progression of insulin resistance [2]: reduction in progression of insulin resistance

Molecule: OC[C@H]1O[C@@H](n2cnc3c(O)ncnc32)[C@H](O)[C@@H]1O [Inosine]
- effect of supplementation on VO2max / aerobic capacity / exercise performance [1]: no effect on aerobic performance

Molecule: vitamin E
- effect of supplementation on VO2max / aerobic capacity / exercise performance [1]: neither vitamin E nor C, either alone or in combination, enhanced exercise performance

Molecule: phosphate [Oral phosphate]
- effect of supplementation on VO2max / aerobic capacity / exercise performance [1]: no improvement in aerobic capacity

Molecule: C[N+](C)(C)C[C@H](O)CC(=O)[O-] [L-carnitine]
- effect of supplementation on VO2max / aerobic capacity / exercise performance [1]: unlikely to be associated with the enhanced exercise performance

Molecule: NC(=O)C1=CN([C@@H]2O[C@H](COP(=O)(O)OP(=O)(O)OC[C@H]3O[C@@H](n4cnc5c(N)ncnc54)[C@H](O)[C@@H]3O)[C@@H](O)[C@H]2O)C=CC1 [NADH, Nicotinamide Adenine Dinucleotide Hydride]
- effect of supplementation on VO2max / aerobic capacity / exercise performance [1]: no effects on maximal oxygen uptake VO2max, maximal anaerobic running time or mental performance

Molecule: CC(CN1c2ccccc2Sc2ccccc21)N(C)C (stereo not drawn) [phenergan, reference compound]
- post-chemo restlessness/akathisia [3]: relieved

Molecule: CC(C)=CCC/C(C)=C/CC/C(C)=C/CC/C(C)=C/CC/C(C)=C/CC/C(C)=C/CC/C(C)=C/CC1=C(C)C(=O)c2ccccc2C1=O [vitamin K2-7]
- general fatigue ([4]; Example 04: person, 350 μg/day): general fatigue had reduced
- treadmill starting speed ([4]; Example 04: person, 350 μg/day, within 2 weeks, earlier start 5 km/hr): 6 km/hr
- treadmill speed reached ([4]; Example 04: person, 350 μg/day, within 2 weeks, earlier up to 6 km/hr): 6.4 km/hr
- fatigue and energy level ([4]; Example 05: person, ovarian cancer under chemotherapy, 100 μg/day): not much relief in fatigue and energy level
- fatigue and energy level ([4]; Example 05: person, ovarian cancer under chemotherapy, larger dose, within six weeks): less fatigue and significant improvement in the energy level
- fatigue and low energy levels ([4]; Example 06: person, 100 μg/day): only mildly relieved
- fatigue and energy level ([4]; Example 06: person, 350 μg/day over two months): significant relief in fatigue and reasonable increases in the energy level
- fatigue and energy at work ([4]; Example 07: person, hypertensive, 2x350 μg/day): improvement in fatigue and feels more energetic at work
- energy / ability to climb stairs ([4]; Example 09: person, diabetes and hypertension, 350 μg one cap/day, after a month): started feeling more energetic and would walk up the stairs easily without any problem
- symptoms of the nerves and muscle (cramps, tingling and numbness of lower limbs) ([5]; 100 μg/day): significantly relieved
- cramps and neuropathic symptoms ([5]; 350 μg/day over two months): markedly reduced
- post-chemo restlessness/akathisia [3]: did not benefit
- blood pressure ([6]; Example 07: 2x350 μg/day restarted after 15 days off treatment (146/108 off treatment)): 136/100
- blood pressure ([6]; Example 07: continued 2x350 μg/day for next couple of months): 138/104
- blood pressure ([6]; Example 07: person, 3x100 μg/day 1 month then 2x350 μg/day 2 months, baseline 160/114): 140/108
- blood pressure ([6]; Example 08: person, 650 μg one capsule/day, 2 months, baseline 130/90): 112/80
- side effects ([7]; Example 06: person, 100 then 350 μg/day): no side effects
- adverse effects ([7]; Example 08: person, 650 μg/day, 2 months): no adverse effects
- CEA levels [8]: dropped markedly
